Assay results reported in patent US20060115815A1 (priority 2002, published 2006).
Like-named read-outs stand apart in the source and are kept apart here.

What was measured:
84V90M = 84V90M (Human immunodeficiency virus type 1 group M subtype B, UniProt P04585, I572V/L578M); test: cell-based; design: species or system HIV-1
[1] = target: recombinant HIV-1 protease (Human immunodeficiency virus type 1 group M subtype B, UniProt P04585); test: biochemical; type: biochemical
[2] = tested on: wild-type HIV-1 strain IIIB; test: microbe, parasite or virus in culture; type: cell-based
[3] = tested on: mutant HIV-1 with I84V/L90M mutations in the protease gene; type: cell-based
WT = test: microbe, parasite or virus in culture; type: cell-based, HIV-1
30N82I88D [4] = test: microbe, parasite or virus in culture; type: cell-based, HIV-1
48V54V82A [5] = test: microbe, parasite or virus in culture; type: cell-based, HIV-1
46I50V = test: microbe, parasite or virus in culture; type: cell-based, HIV-1
WT HIV-1 = test: microbe, parasite or virus in culture; type: cell-based
30N82I88D [6] = tested on: 30N82I88D; design: species or system HIV-1; details: MT-4, 30N82I88D; read-out: Cell-based assay (MT-4) EC50/nM 30N82I88D
48V54V82A [7] = tested on: 48V54V82A; design: species or system HIV-1; details: MT-4, 48V54V82A; read-out: Cell-based assay (MT-4) EC50/nM 48V54V82A
[8] = tested on: recombinant HIV-1 strains with resistance mutations in the protease gene; test: Cross-resistance profile assay, whole panel of mutant viruses; type: cell-based
[9] = tested on: PBMC in intact human whole blood
[10] = read-out: Cell-based assay (MT-4) EC50 WT
[11] = MT-4, 30N82I88D, read-out: Cell-based assay (MT-4) EC50 30N82I88D
[12] = MT-4, 48V54V82A, read-out: Cell-based assay (MT-4) EC50 48V54V82A
[13] = MT-4, 46I50V, read-out: Cell-based assay (MT-4) EC50 46I50V
[14] = MT-4, WT, read-out: Cell-based assay (MT-4) EC50/nM WT
[15] = Human immunodeficiency virus 1, read-out: Cell-based assay (MT-4) EC50 WT
[16] = Human immunodeficiency virus 1, read-out: Cell-based assay (MT-4) EC50 30N82I88D
[17] = Human immunodeficiency virus 1, read-out: Cell-based assay (MT-4) EC50 48V54V82A
[18] = Human immunodeficiency virus 1, read-out: Cell-based assay (MT-4) EC50 46I50V
[19] = Human immunodeficiency virus 1, read-out: EC50 [nM] WT HIV-1
[20] = fold difference in EC50, mutant vs. wild type
[21] = Ki (pM), class symbols, Table 10

Nc1n[nH]c2ccc(CN3C(=O)N(Cc4cccc(OCP(=O)(O)Oc5ccccc5)c4)C(Cc4ccccc4)C(O)C(O)C3Cc3ccccc3)cc12 (stereo not drawn) [m-OCH2PO3HPh]
EC50 (84V90M): > 6000 nM

Cc1ccc(C(=O)N[C@@H](Cc2ccc(OCP(=O)(Oc3ccccc3)Oc3ccccc3)cc2)[C@H](O)CN(CC(C)C)S(=O)(=O)c2ccc(N)cc2)cc1O
Ki ([1]; read-out: Ki): 100 to 1000 pM
EC50 ([2]; read-out: EC50): 50 to 500 nM
I84V/L90M fold change ([3]; I84V/L90M mutant): + (>3 to ≦10)

CCOP(=O)(CCCNC(=O)c1cccc(CN2C(=O)N(Cc3ccc4[nH]nc(N)c4c3)[C@H](Cc3ccccc3)[C@H](O)[C@@H](O)[C@H]2Cc2ccccc2)c1)OCC
EC50 (WT; [10]): 188 nM
EC50 (84V90M; MT-4, 84V90M, read-out: Cell-based assay (MT-4) EC50 84V90M): 476 nM
EC50 (30N82I88D [4]; [11]): 666 nM
EC50 (48V54V82A [5]; [12]): 240 nM
EC50 (46I50V; [13]): 319 nM

O=C1N(Cc2ccccc2)[C@H](Cc2ccccc2)[C@H](O)[C@@H](O)[C@@H](Cc2ccc(O)cc2)N1Cc1ccccc1 [R=H, R1=Ph, R2=OH]
EC50 ([3]; MT-4, 84V90M, read-out: Cell-based assay (MT-4) EC50/nM 84V90M): > 6000 nM
EC50 (WT HIV-1; [14]): 1260 nM
EC50 (30N82I88D [6]): 2950 nM
EC50 (48V54V82A [7]): > 6000 nM

Nc1n[nH]c2ccc(CN3C(=O)N(Cc4cccc(OCP(=O)(OCc5ccccc5)OCc5ccccc5)c4)C(Cc4ccccc4)C(O)C(O)C3Cc3ccccc3)cc12 (stereo not drawn)
EC50 (WT; [15]): 898 nM
EC50 (84V90M): > 6000 nM
EC50 (30N82I88D [4]; [16]): 705 nM
EC50 (48V54V82A [5]; [17]): 2600 nM
EC50 (46I50V; [18]): 3120 nM

CCOP(=O)(COc1ccc(CN2C(=O)N(Cc3ccc4[nH]nc(N)c4c3)C(Cc3ccccc3)C(O)C(O)C2Cc2ccccc2)cc1)OCC (stereo not drawn)
EC50 (WT; [15]): 2480 nM
EC50 (84V90M): > 6000 nM
EC50 (30N82I88D [4]; [16]): 1340 nM

COc1ccc(CN2C(=O)N(Cc3ccc(OCc4ccccc4)cc3)[C@H](Cc3ccccc3)[C@H](O)[C@@H](O)[C@H]2Cc2ccccc2)cc1C#N
Ki ([1]; read-out: Enzymatic assay Ki): > 5000 pM
EC50 (WT HIV-1; [14]): 5950 nM

CCOP(=O)(COc1ccc(CC2C(O)C(O)C(Cc3ccccc3)N(Cc3ccccc3)C(=O)N2Cc2ccccc2)cc1)OCC (stereo not drawn)
EC50 (WT HIV-1; Human immunodeficiency virus 1, read-out: Cell-based assay (MT-4) EC50/nM WT): 107 nM

Nc1n[nH]c2ccc(CN3C(=O)N(Cc4ccc(OCP(=O)(OCc5ccccc5)OCc5ccccc5)cc4)C(Cc4ccccc4)C(O)C(O)C3Cc3ccccc3)cc12 (stereo not drawn)
EC50 (WT; [15]): 2700 nM
EC50 (84V90M): 4960 nM
EC50 (30N82I88D [4]; [16]): 2120 nM

CCOC(=O)C(C)NP(=O)(COc1ccc(CC(NC(=O)OC2COC3OCCC23)C(O)CN(CC(C)C)S(=O)(=O)c2ccc(OC)cc2)cc1)Oc1ccccc1 (stereo not drawn) [GS-16571]
Total No. of Resistant Viruses ([8]; of 11 mutant viruses, resistance = 5-fold and higher change in EC50 relative to wild-type): 0
Intracellular Acid Metabolite Concentration [9]: 319 ± 112 µM
Intracellular Prodrug Concentration [9]: 137 ± 62 µM
Intracellular Prodrug and Metabolites Concentration, uM: Acid Metabolite [9]: 319 ± 112 µM
Intracellular Prodrug and Metabolites Concentration: Prodrug [9]: 137 ± 62 µM
Intracellular Prodrug and Metabolites Concentration: Total [9]: 432 ± 208 µM

CC(C)c1nc(CN(C)C(=O)N[C@H](C(=O)N[C@@H](Cc2ccccc2)C[C@H](O)[C@H](Cc2ccccc2)NC(=O)OCc2cncs2)C(C)C)cs1 [Ritonavir, reference compound]
EC50 (WT HIV-1; [19]): 15 nM
Total No. of Resistant Viruses ([8]; {}): 10

CCOP(=O)(Cc1ccc(CC(NC(=O)OC2COC3OCCC23)C(O)CN(CC(C)C)S(=O)(=O)c2ccc(OC)cc2)cc1)OCC (stereo not drawn) [drawing 654 R1=OE R2=OE]
Ki ([1]; read-out: Ki): < 10 pM
EC50 ([2]; read-out: EC50): < 50 nM
I84V/L90M fold change [3, 20]: + (>3 to ≦10)

COc1ccc(S(=O)(=O)N(CC(C)C)C[C@@H](O)[C@H](Cc2ccccc2)NC(=O)O[C@H]2CO[C@H]3OCC[C@H]32)cc1 [94-003, reference compound]
EC50 (WT HIV-1; [19]): 0.5 nM
Total No. of Resistant Viruses ([8]; {}): 3

Nc1n[nH]c2ccc(CN3C(=O)N(CCCCOCP(=O)(O)O)C(Cc4ccccc4)C(O)C(O)C3Cc3ccccc3)cc12 (stereo not drawn) [CH2OCH2PO3H2]
EC50 (84V90M): > 4240 nM

CCOP(=O)(COCCCN1C(=O)N(Cc2ccc3[nH]nc(N)c3c2)C(Cc2ccccc2)C(O)C(O)C1Cc1ccccc1)OCC (stereo not drawn) [OCH2PO3Et2]
EC50 (84V90M): > 6000 nM

CCCCOC(=O)C(C)OP(=O)(COc1ccc(C[C@H](NC(=O)O[C@H]2CO[C@H]3OCC[C@H]32)[C@H](O)CN(CC(C)C)S(=O)(=O)c2cccc(N)c2)cc1)Oc1ccccc1 (stereo partly drawn) [drawing 763]
Ki ([1]; read-out: Ki): 10 to 100 pM
EC50 ([2]; read-out: EC50): 50 to 500 nM

CCOP(=O)(COc1cccc(CN2C(=O)N(Cc3ccc4[nH]nc(N)c4c3)C(Cc3ccccc3)C(O)C(O)C2Cc2ccccc2)c1)OCC (stereo not drawn)
EC50 (WT; [15]): 665 nM
EC50 (84V90M): 3010 nM
EC50 (30N82I88D [4]; [16]): 93 nM
EC50 (48V54V82A [5]; [17]): 513 nM
EC50 (46I50V; [18]): 857 nM

CCOP(=O)(CCn1nc(O)c2cc(CN3C(=O)N(Cc4ccccc4)[C@H](Cc4ccccc4)[C@H](O)[C@@H](O)[C@H]3Cc3ccccc3)ccc21)OCC
IC50 ([1]; read-out: Enzymatic assay WT IC50/nM): 109 nM

COc1ccc(S(=O)(=O)N(CC(C)C)CC(O)C(Cc2ccc(NCP(=O)(NC(C)C(=O)OC(C)C)Oc3ccccc3)cc2)NC(=O)OC2COC3OCCC23)cc1 (stereo not drawn) [drawing 704]
Ki [1, 21]: 10 to 100 pM

Nc1n[nH]c2ccc(CN3C(=O)N(Cc4cccc(O)c4)C(Cc4ccccc4)C(O)C(O)C3Cc3ccccc3)cc12 (stereo not drawn) [m-OH]
EC50 (WT; [15]): 151 nM
EC50 (84V90M): 475 nM
EC50 (30N82I88D [4]; [16]): 249 nM
EC50 (48V54V82A [5]; [17]): 84 nM
EC50 (46I50V; [18]): 104 nM

Nc1n[nH]c2ccc(CN3C(=O)N(Cc4cccc(OCP(=O)(Oc5ccccc5)Oc5ccccc5)c4)C(Cc4ccccc4)C(O)C(O)C3Cc3ccccc3)cc12 (stereo not drawn) [m-OCH2PO3Ph2]
EC50 (84V90M): > 6000 nM

COc1ccc(S(=O)(=O)N(CC(C)C)CC(O)C(CN(C)Cc2ccc(P(=O)(O)OC(C)C(=O)O)cc2)NC(=O)OC2COC3OCCC23)cc1 (stereo not drawn)
Ki ([1]; read-out: Ki): > 1000 pM

CCOC(=O)C(C)OP(=O)(CCN(C)Cc1ccc(CC(NC(=O)OC2COC3OCCC23)C(O)CN(CC(C)C)S(=O)(=O)c2ccc(OC)cc2)cc1)Oc1ccccc1 (stereo not drawn) [drawing 663 R1=Ph R2=Lac-Et]
Ki [1, 21]: 100 to 1000 pM
EC50 ([2]; Human immunodeficiency virus 1, IIIB, MT2, class symbols, Table 10): 50 to 500 nM
I84V/L90M fold change [3, 20]: + (>3 to ≦10)

CCOP(=O)(COc1ccc(CC2C(O)C(O)C(Cc3ccc(O)cc3)N(Cc3ccc(O)cc3)C(=O)N2Cc2ccc(O)cc2)cc1)OCC (stereo not drawn) [OH, Ph-pOH, OCH2PO3Et2]
EC50 (WT; [10]): 285 nM
EC50 (30N82I88D [4]; [11]): 211 nM
EC50 (48V54V82A [5]; [12]): 986 nM
EC50 (46I50V; [13]): 1110 nM

CC(C)(C)NC(=O)[C@@H]1C[C@@H]2CCCC[C@@H]2CN1C[C@@H](O)[C@H](Cc1ccccc1)NC(=O)[C@H](CC(N)=O)NC(=O)c1ccc2ccccc2n1 [Saquinavir, reference compound]
EC50 (WT HIV-1; [19]): 4 nM
Total No. of Resistant Viruses ([8]; {}): 4

CC(C)(C)NC(=O)[C@@H]1CN(Cc2cccnc2)CCN1C[C@@H](O)C[C@@H](Cc1ccccc1)C(=O)N[C@H]1c2ccccc2C[C@H]1O [Indinavir, reference compound]
EC50 (WT HIV-1; [19]): 15 nM
Total No. of Resistant Viruses ([8]; {}): 8

CC[C@H](OP(=O)(O)COc1ccc(C[C@H](NC(=O)O[C@H]2CO[C@H]3OCC[C@H]32)[C@H](O)CN(CC(C)C)S(=O)(=O)c2ccc(OC)cc2)cc1)C(=O)O [drawing 659 R1=OH R2=(S)Hba-OH]
Ki ([1]; read-out: Ki): 10 to 100 pM

CCOP(=O)(COCCCCN1C(=O)N(Cc2ccc3[nH]nc(N)c3c2)C(Cc2ccccc2)C(O)C(O)C1Cc1ccccc1)OCC (stereo not drawn) [CH2OCH2PO3Et2]
EC50 (84V90M): 3300 nM

CCOP(=O)(COc1ccc(CC2C(O)C(O)C(Cc3ccc(OC)cc3)N(Cc3cccc(N)c3)C(=O)N2Cc2cccc(N)c2)cc1)OCC (stereo not drawn) [OCH3, Ph-mNH2, OCH2PO3Et2]
EC50 (84V90M): 535 nM

CCOP(=O)(CCCNC(=O)c1cccc(CN2C(=O)N(Cc3ccc4[nH]nc(N)c4c3)C(Cc3ccccc3)C(O)C(O)C2Cc2ccccc2)c1)OCC (stereo not drawn)
EC50 (WT; [15]): 188 nM
EC50 (84V90M): 476 nM

COc1ccc(S(=O)(=O)N(CC(C)C)CC(O)C(Cc2ccc(NCP(=O)(NC(C)C(=O)OC(C)C)Oc3ccccc3)cc2)NC(=O)OC2COC3OCCC23)cc1 (stereo not drawn) [drawing 705]
Ki [1, 21]: < 10 pM

COc1ccc(S(=O)(=O)N(CC(C)C)C[C@@H](O)[C@H](CN2CCc3cc(OCP(=O)(O)OC(C)C(=O)O)ccc3C2)NC(=O)O[C@H]2CO[C@H]3OCC[C@H]32)cc1 (stereo partly drawn)
Ki ([1]; read-out: Ki): 100 to 1000 pM

CC(C)CN(CC(O)C(Cc1ccccc1)NC(=O)OC1COC2OCCC12)S(=O)(=O)c1ccc(OCP(=O)(O)Oc2ccccc2)cc1 (stereo not drawn)
Ki ([1]; Ki): 10 to 100 pM

Cc1cccc(C)c1OCC(=O)N[C@@H](Cc1ccc(OCP(=O)(Oc2ccccc2)Oc2ccccc2)cc1)[C@H](O)CN(CC(C)C)S(=O)(=O)c1ccc(N)cc1
Ki ([1]; read-out: Ki): 100 to 1000 pM
EC50 ([2]; read-out: EC50): < 50 nM
I84V/L90M fold change ([3]; I84V/L90M mutant): ++ (>10 to ≦30)

CC(C)CN(CC(O)C(Cc1ccc(OCP(=O)(O)OC(C)C(=O)O)cc1)NC(=O)OC1COC2OCCC12)S(=O)(=O)c1ccc(CO)cc1 (stereo not drawn)
Ki ([1]; read-out: Ki): 10 to 100 pM
